Measurements reported in article PMC12563652 (International Journal of Molecular Sciences, 2025).
Like-named read-outs stand apart in the source and are kept apart here.

How the values were obtained:
α2-adrenoceptor = experiment: Competitive radioligand binding, [3H]clonidine, rat cerebral cortex; conditions: n.a. = no activity at 10–5 M
Protocol: The competitive radioligand-binding assay assessed affinity for α1- and α2-adrenoceptors. Experiments were carried out in the rat cerebral cortex. […] The membrane preparation and assay technique followed the previously reported protocol [10]. Radioactivity was measured using the MicroBeta2 scintillation counter (PerkinElmer, Kraków, Poland). The data was adjusted to match a single-site curve-fitting formula using Prism 8 (GraphPad Software, La Jolla, CA, USA), and the Ki values were estimated by means of the Cheng–Prusoff formula.

C57BL/6 mice = experiment: Inhibition of gastric emptying (mouse model, phenol red); format: in vivo
Protocol: Fifty male C57BL/6 mice (22–27 g) were housed in standard cages while maintaining a 12:12-h light/dark cycle, with food and water available ad libitum. The experimental procedures were performed from 10:00 a.m. to 14:00 p.m.
The experiment was conducted according to Miyasaka et al. and Kotańska et al., with some minor modifications. Mice were subjected to a 20 h food deprivation and a 2 h water deprivation prior to testing. The animals received a vehicle (0.25 mL/mouse) alone or along with various compounds: JP-14 (10 mg/kg b. w.), RT (5 mg/kg body weight), metformin (100 mg/kg b. w.), or loperamide (reference compound; 10 mg/kg b. w.) via gastric gavage. Following a 45 min interval, phenol red (0.5 mL, 0.05% w/v) combined with glucose (1 g/kg body weight) was administered through the same route. Additionally, each group received an intraperitoneal injection of heparin (2500 U/mouse) 20 min prior to the collection of stomach contents. Seven mice treated with the vehicle were sacrificed immediately after the phenol red administration to serve as a standard control (representing 100% phenol red in the stomach at 0 min), establishing a baseline for maximum absorbance (100%). The leftover mice were sacrificed 30 min later. The stomachs were removed and homogenized using an OMNI homogenizer (OMNI International Company, Kennesaw, GA, USA), with 10 mL of 0.1 N NaOH. To 5 mL of homogenate, 0.5 mL of 20% w/v solution of trichloroacetic acid was incorporated to precipitate the proteins. Subsequently, the samples were centrifuged at 600× g for 15 min at a temperature of 20 °C, and 0.25 mL of supernatant was mixed with 1 mL of 0.5 N NaOH to achieve maximum color intensity. The concentration of phenol red was measured using spectrophotometry, with absorbance evaluated at a wavelength of 560 nm (MuLTISKAN.GO, Thermo Fisher Scientific Inc., Waltham, MA USA). For each mouse, the percentage of gastric emptying (GE %) was calculated using the following equation:(1) GE%=(Ac0−Ab)/(Ac0−Ac30)×100% where: Ac0 is the absorbance of the control gastric sample collected immediately after dye administration, and Ac30 is the absorbance of the control gastric sample collected 30 min after dye administration, i.e., Ac0–Ac30 = 100% gastric emptying.

HepG2 cells = experiment: Glucose consumption (Amplex Red assay) in HepG2 cells; format: cell-based, human; conditions: for increase in glucose consumption (uptake): relative to vehicle-treated cells
Protocol: The HepG2 human hepatocellular carcinoma cell line (ATCC® HB-8065™) was cultured in DMEM supplemented with 10% FBS, 100 µg/mL streptomycin, and 100 IU/mL penicillin at 37 °C in 5% CO2. Cells were seeded in 96-well plates at a density of 10,000 cells/well and used for experiments 24 h after plating.
Stock solutions of test compounds were prepared at a concentration of 10 mM in dimethyl sulfoxide (DMSO). At least 1 mg of each substance was carefully measured and mixed with the right amount of DMSO. A series of dilutions were made in DMSO and then further diluted in phosphate-buffered saline before being introduced into the cell culture medium. Precipitation or opalescence was assessed prior to application.
The glucose uptake was measured with the Amplex® Red Glucose/Glucose Oxidase Assay Kit from Thermo Fisher Scientific, following the guidelines provided by the maker. Cell culture supernatants were collected and incubated with a reaction mix containing 100 μM Amplex® Red reagent, 0.2 U/mL horseradish peroxidase (HRP), and 1 U/mL glucose oxidase at room temperature for 30 min in the dark. Fluorescence was measured at 530 nm excitation and 590 nm emission using the POLARstar Omega plate reader (BMG Labtech).

[1] = tested on: multiple species TAAR1 (mouse, rat, and human); set-up: method as in PMID 31848873; conditions: heterologous cell lines; cited from earlier work
3T3-L1 cells = experiment: Lipid accumulation (AdipoRed assay) in 3T3-L1 cells; format: cell-based, mouse; conditions: for lipid accumulation (intracellular lipid content), reduction: 10 µM, compared to vehicle-treated controls
Protocol: (§1) The 3T3-L1 mouse embryonic fibroblast cell line (ATCC CRL-11605) was cultured according to the standard protocol in Dulbecco’s Modified Eagle Medium (DMEM) supplemented with 10% bovine calf serum, 100 µg/mL streptomycin, and 100 IU/mL penicillin, at 37 °C in a humidified atmosphere containing 5% CO2. Cells were seeded at a density of 10,000 cells/well in collagen type I–coated (10 µg/mL) 96-well plates and allowed to attach for 24 h. Differentiation was initiated by replacing the medium with induction medium composed of DMEM, 0.5 mM 3-isobutyl-1-methylxanthine (IBMX), 1 µM dexamethasone, and 10% fetal bovine serum (FBS). After 48 h (differentiation day 2), the medium was replaced with DMEM supplemented with 10% FBS and 10 µg/mL human recombinant insulin. After an additional 24 h, the medium was replaced with DMEM supplemented with 10% bovine calf serum, 100 µg/mL streptomycin, and 100 IU/mL penicillin. The medium was refreshed every 24 h for 10 consecutive days to allow full differentiation into adipocytes.
On day 10 of differentiation, cells were treated with test compounds for 24 h. To investigate the involvement of the TAAR1 receptor, cells were pre-treated for 15 min with the selective TAAR1 antagonist RTI-7470-44 (40 nM) before compound exposure. After incubation, the culture medium was removed, and wells were gently rinsed with 200 µL PBS and refilled with 200 µL PBS. AdipoRed reagent (5 µL; Lonza) was added to each well, mixed, and incubated at room temperature for 10 min. Fluorescence was measured using the POLARstar Omega plate reader (excitation 485 nm, emission 535 nm).

3T3-L1 cell line = experiment: Cell viability assay (PrestoBlue, metabolic function), 3T3-L1; format: cell-based, mouse; conditions: 24 h, mean
Protocol: (§2) Prior to investigating the biological activity and molecular characteristics of the test compounds in vitro, a comprehensive cytotoxicity screening was performed using HepG2 and 3T3-L1 cell lines. Two complementary assays were applied: one based on the quantification of adenylate kinase release as an indicator of cell membrane damage, and another relying on resazurin reduction to assess cellular metabolic activity. These complementary assays enable sensitive and reliable detection of cytotoxic effects across diverse cell types. This preliminary assessment was carried out to ensure that subsequent functional analyses would not be confounded by nonspecific cytotoxic effects.
(§3) Cell viability was measured using PrestoBlue reagent (Thermo Fisher Scientific, Waltham, MA, USA), following the manufacturer’s instructions. After 24 h of compound treatment, PrestoBlue reagent was added to each well at 10% of the remaining medium volume. The plate was incubated at 37 °C for 15 min, and fluorescence was measured using the POLARstar Omega plate reader (excitation 530 nm, emission 580 nm). Results were expressed as a percentage of viable cells relative to the DMSO-treated control.

3T3-L1 adipocytes [2] = experiment: Steatosis, HCS LipidTOX imaging in 3T3-L1 adipocytes; format: cell-based, mouse
Protocol: as §1
(§4) Lipid accumulation and phospholipidosis were evaluated using the HCS LipidTOX Phospholipidosis and Steatosis Detection Kit (Thermo Fisher Scientific). Cells were cultured in black, clear-bottom 96-well plates and treated as described. Next, cells were fixed with 4% paraformaldehyde (15 min), washed with PBS, and stained with LipidTOX Green Neutral Lipid Stain (for steatosis) and LipidTOX Red Phospholipidosis Detection Reagent, prepared according to the manufacturer’s instructions. Nuclei were counterstained with Hoechst 33342 (2 µg/mL). Image acquisition and quantitative analysis were performed using High Content Screening (HCS) technology on the ImageXpress XLS system (Molecular Devices). Lipid droplet and phospholipid content were quantified using automated image analysis pipelines.

HEPG2 cell line [3] = format: cell-based; conditions: human, 24 h
Protocol: as §2
(§5) The damage of cell membrane was evaluated with the ToxiLight BioAssay Kit from Lonza (Visp, Switzerland). This test is very sensitive and measures cell damage by looking at the release of adenylate kinase (AK). After 24 h of treatment, 5 µL of culture supernatant was transferred to a 384-well white plate (PerkinElmer, Singapore), followed by the addition of 20 µL of Adenylate Kinase Detection Reagent (AKDR). After a 10 min incubation at room temperature, luminescence was measured using the POLARstar Omega plate reader (BMG Labtech, Ortenberg, Germany). Results were expressed as a percentage relative to a lysed control (100% cell death).

3T3L1 cell line = format: cell-based; conditions: mouse, 24 h
Protocol: as §2, §5

human TAAR1 = target: T1, human TAAR1 (Homo sapiens, UniProt Q96RJ0); experiment: TAAR1 agonist activity, Hit Hunter cAMP assay; format: cell-based; conditions: cAMP accumulation; n.a. = no activity at 10–5 M; read-out: TAAR1 Ago EC50
T1 sequence (Q96RJ0 1-339): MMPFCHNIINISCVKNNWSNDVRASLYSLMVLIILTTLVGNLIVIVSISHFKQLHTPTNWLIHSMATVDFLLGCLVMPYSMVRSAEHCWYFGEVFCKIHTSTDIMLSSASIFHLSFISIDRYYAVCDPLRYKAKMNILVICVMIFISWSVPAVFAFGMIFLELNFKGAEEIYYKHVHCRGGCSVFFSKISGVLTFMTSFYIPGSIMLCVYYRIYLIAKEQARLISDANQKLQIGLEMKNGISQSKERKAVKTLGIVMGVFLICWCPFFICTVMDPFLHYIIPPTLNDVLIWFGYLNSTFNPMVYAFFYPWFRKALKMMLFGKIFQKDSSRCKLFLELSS
Protocol: The intrinsic activity of the TAAR1 receptor will be assessed according to the manufacturer’s protocol, using the Hit Hunter® cAMP assay by DiscoverX. This assay enables monitoring of GPCR activation in cells stably expressing TAAR1 by measuring changes in the level of the secondary messenger, cAMP. The cAMP Hunter cell lines were cultured from frozen stocks following standard procedures. Cells were plated in white-walled 384-well microplates at a total volume of 20 µL per well and incubated at 37 °C for the required period before analysis. To assess agonist activity, cells were exposed to the test compound to trigger a response. The culture medium was then removed and replaced with 15 µL of a 2:1 mixture of HBSS and 10 mM Hepes containing the cAMP XS+ antibody reagent. Sample stocks were diluted to prepare a 4× concentration in assay buffer. Subsequently, 5 µL of the 4× sample was added to each well, and the plates were incubated at either 37 °C or room temperature for 30 or 60 min. The vehicle was used at a concentration of 1%. After incubating the compounds for the required time, the assay signal was produced by adding 20 µL of the cAMP XS+ ED/CL lysis cocktail and incubating for one hour. This was followed by a three-hour incubation with 20 µL of the cAMP XS+EA reagent at room temperature. After signal development, the microplates were read using a PerkinElmer Envision Reader to detect chemiluminescence.

3T3-L1 adipocytes [4] = experiment: Phospholipidosis, HCS LipidTOX imaging in 3T3-L1 adipocytes; format: cell-based, mouse
Protocol: as §1, §4

HEPG2 cell line [5] = experiment: Cell viability assay (PrestoBlue, metabolic function), HepG2; format: cell-based, human; conditions: 24 h, mean
Protocol: as §2, §3

## COc1ccc(/C=N/NC(=N)N)cc1 [4 (JP06)]
α2-adrenoceptor
  Ki: 1070 ± 78 nM

## CN(C)C(=N)N=C(N)N [Metformin, metformin]
C57BL/6 mice; 100 mg/kg b.w.
  inhibitory effect on gastric emptying: about 30%
HepG2 cells; 100 µM
  increase in glucose consumption (uptake): 36%

## CN(C)C(=O)C(CCN1CCC(O)(c2ccc(Cl)cc2)CC1)(c1ccccc1)c1ccccc1 [loperamide]
C57BL/6 mice; intragastric, 10 mg/kg b.w.
  percentage inhibition of gastric emptying: about 55%

## N#Cc1cc(/C=N/NC(=N)N)ccc1F
α2-adrenoceptor
  Ki: 996 nM

## NCC(O)c1ccc(O)cc1 (stereo not drawn) [para-octopamine]
[1]
  EC50: 2000 to 20000 nM

## Clc1cccc(N2CCNCC2)c1 [mCPP, meta-chlorophenylpiperazine]
3T3-L1 cells
  lipid accumulation (intracellular lipid content), reduction: significantly increased lipid accumulation
HepG2 cells; 10 µM
  increase in glucose consumption (uptake): no significant changes

## CN(CCOc1ccc(CC2SC(=O)NC2=O)cc1)c1ccccn1 (stereo not drawn) [Rosiglitazone, rosiglitazone]
3T3-L1 cells; 100 µM, relative to vehicle-treated cells
  lipid accumulation, reduction: 90%

## NCCc1ccc(O)cc1 [tyramine]
3T3-L1 cell line; Table S5, 0.1 μM
  cellular metabolic function, percentage relative to control (live cells): 95%
3T3-L1 cell line; Table S5, 1 μM
  cellular metabolic function, percentage relative to control (live cells): 90%
3T3-L1 cell line; Table S5, 10 μM
  cellular metabolic function, percentage relative to control (live cells): 88%
3T3-L1 cell line; Table S5, 50 μM
  cellular metabolic function, percentage relative to control (live cells): 67%
3T3-L1 cell line; Table S5, 100 μM
  cellular metabolic function, percentage relative to control (live cells): 55%
3T3-L1 adipocytes [2]; 10 µM + RTI-7470-44 (40 nM)
  effect on steatosis under TAAR1 blockade: abolished
3T3-L1 adipocytes [2]; 10 µM, vs vehicle
  steatosis (neutral lipid accumulation): statistically significant decrease
HEPG2 cell line [3]; 0.1 μM
  membrane integrity, percentage relative to control (death cells): 8%
HEPG2 cell line [3]; 1 μM
  membrane integrity, percentage relative to control (death cells): 7%
HEPG2 cell line [3]; 10 μM
  membrane integrity, percentage relative to control (death cells): 7%
HEPG2 cell line [3]; 50 μM
  membrane integrity, percentage relative to control (death cells): 8%
HEPG2 cell line [3]; 100 μM
  membrane integrity, percentage relative to control (death cells): 11%
3T3L1 cell line; 0.1 μM
  membrane integrity, percentage relative to control (death cells): 6%
3T3L1 cell line; 1 μM
  membrane integrity, percentage relative to control (death cells): 6%
3T3L1 cell line; 10 μM
  membrane integrity, percentage relative to control (death cells): 6%
3T3L1 cell line; 50 μM
  membrane integrity, percentage relative to control (death cells): 6%
3T3L1 cell line; 100 μM
  membrane integrity, percentage relative to control (death cells): 8%
Human TAAR1
  EC50: 5870 ± 470 nM
3T3-L1 cells; 10 µM + RTI-7470-44 (40 nM)
  lipid-lowering effect under TAAR1 blockade: completely abolished
3T3-L1 cells
  lipid accumulation (intracellular lipid content), reduction: 33%
HepG2 cells; 10 µM + RTI-7470-44 (40 nM)
  glucose-stimulating effect under TAAR1 blockade: substantially attenuated
HepG2 cells; 10 µM
  increase in glucose consumption (uptake): 32%
3T3-L1 adipocytes [4]; 10 µM + RTI-7470-44 (40 nM)
  effect on phospholipidosis under TAAR1 blockade: reversed
3T3-L1 adipocytes [4]; 10 µM, vs vehicle
  phospholipidosis (phospholipid accumulation): significantly reduced
HEPG2 cell line [5]; Table S4, 0.1 μM
  cellular metabolic function, percentage relative to control (live cells): 101%
HEPG2 cell line [5]; Table S4, 1 μM
  cellular metabolic function, percentage relative to control (live cells): 98%
HEPG2 cell line [5]; Table S4, 10 μM
  cellular metabolic function, percentage relative to control (live cells): 97%
HEPG2 cell line [5]; Table S4, 50 μM
  cellular metabolic function, percentage relative to control (live cells): 89%
HEPG2 cell line [5]; Table S4, 100 μM
  cellular metabolic function, percentage relative to control (live cells): 80%

## NCCc1c[nH]c2ccccc12 [tryptamine]
[1]
  EC50: 400 to 21000 nM
